Measurements published in ChEMBL document CHEMBL3885881, “DrugMatrix”.

Organism: Rattus norvegicus
Type: toxicity, organism-based, Sprague-Dawley
Details: in vivo, po, route oral GAVAGE, […]; for ABSOLUTE EOSINOPHIL / ABSOLUTE LYMPHOCYTE / ABSOLUTE MONOCYTE / ABSOLUTE SEGMENTED NEUTROPHIL / BASOPHIL / EOSINOPHIL / ERYTHROCYTE COUNT / HEMATOCRIT / HEMOGLOBIN / LEUKOCYTE COUNT / LYMPHOCYTE / MEAN CORPUSCULAR HEMOGLOBIN / MEAN CORPUSCULAR HEMOGLOBIN CONCENTRATION / MEAN CORPUSCULAR VOLUME / MONOCYTE / NEUTROPHIL / NUCLEATED RED BLOOD CELLS / PLATELET COUNT: tissue Blood; for ALANINE AMINOTRANSFERASE / ALBUMIN / ALKALINE PHOSPHATASE / ASPARTATE AMINOTRANSFERASE / BLOOD UREA NITROGEN / CARBON DIOXIDE / CHLORIDE / CHOLESTEROL / CREATINE PHOSPHOKINASE / CREATININE / GLUCOSE / LACTATE DEHYDROGENASE / LIPASE / PHOSPHORUS / POTASSIUM / SODIUM / TOTAL BILIRUBIN / TOTAL PROTEIN / URIC ACID: tissue Plasma
[1] = 0 mg/kg, 6 h, vehicle control, dose level Control, time 0.25 day
[2] = 0 mg/kg, 24 h, vehicle control, dose level Control, time 1 day
[3] = 400 mg/kg, 6 h, dose level Low, time 0.25 day

Description: DrugMatrix - Regimen: Single

ClC(Cl)(Cl)Cl [CARBON TETRACHLORIDE]
ABSOLUTE EOSINOPHIL [1]: 61.17 CELLS/uL | ABSOLUTE LYMPHOCYTE [1]: 12625.83 CELLS/uL | ABSOLUTE MONOCYTE [1]: 417.17 CELLS/uL | ABSOLUTE SEGMENTED NEUTROPHIL [1]: 1595.83 CELLS/uL | BASOPHIL [1]: 0% | EOSINOPHIL [1]: 0.33% | ERYTHROCYTE COUNT [1]: 5.46 x10E6/uL | HEMATOCRIT [1]: 36.02% | HEMOGLOBIN [1]: 13.55 G/DL | LEUKOCYTE COUNT [1]: 14.7 x10E3/uL | LYMPHOCYTE [1]: 85.83% | MEAN CORPUSCULAR HEMOGLOBIN [1]: 24.87 pg | MEAN CORPUSCULAR HEMOGLOBIN CONCENTRATION [1]: 37.65 G/DL | MEAN CORPUSCULAR VOLUME [1]: 66.03 fL | MONOCYTE [1]: 2.67% | NEUTROPHIL [1]: 11.17% | NUCLEATED RED BLOOD CELLS [1]: 0 /100WBC | PLATELET COUNT [1]: 1072.33 x10E3/uL | ALANINE AMINOTRANSFERASE [1]: 63.33 u/L | ALBUMIN [1]: 4.58 G/DL | ALKALINE PHOSPHATASE [1]: 285 u/L | ASPARTATE AMINOTRANSFERASE [1]: 116.5 u/L | BLOOD UREA NITROGEN [1]: 9.17 mg/dL | CARBON DIOXIDE [1]: 18.83 mmol/L | CHLORIDE [1]: 104.5 MEQ/L | CHOLESTEROL [1]: 68.67 mg/dL | CREATINE PHOSPHOKINASE [1]: 421 u/L | CREATININE [1]: 0.58 mg/dL | GLUCOSE [1]: 160.67 mg/dL | LACTATE DEHYDROGENASE [1]: 396 u/L | LIPASE [1]: 10.33 u/L | PHOSPHORUS [1]: 12.25 mg/dL | POTASSIUM [1]: 6.42 MEQ/L | SODIUM [1]: 142.77 MEQ/L | TOTAL BILIRUBIN [1]: 0.25 mg/dL | TOTAL PROTEIN [1]: 5.48 G/DL | URIC ACID [1]: 1.65 mg/dL | HEMATOCRIT (0 mg/kg, 24 h, dose level Control, time 1 day): 31.9% | ABSOLUTE EOSINOPHIL [2]: 23.83 CELLS/uL | ABSOLUTE LYMPHOCYTE [2]: 11026.5 CELLS/uL | ABSOLUTE MONOCYTE [2]: 98.5 CELLS/uL | ABSOLUTE SEGMENTED NEUTROPHIL [2]: 667.83 CELLS/uL | BASOPHIL [2]: 0% | EOSINOPHIL [2]: 0.17% | ERYTHROCYTE COUNT [2]: 4.92 x10E6/uL | HEMOGLOBIN [2]: 12.6 G/DL | LEUKOCYTE COUNT [2]: 11.82 x10E3/uL | LYMPHOCYTE [2]: 93% | MEAN CORPUSCULAR HEMOGLOBIN [2]: 25.7 pg | MEAN CORPUSCULAR HEMOGLOBIN CONCENTRATION [2]: 39.57 G/DL | MEAN CORPUSCULAR VOLUME [2]: 64.97 fL | MONOCYTE [2]: 0.83% | NEUTROPHIL [2]: 6% | NUCLEATED RED BLOOD CELLS [2]: 0 /100WBC | PLATELET COUNT [2]: 872.33 x10E3/uL | ALANINE AMINOTRANSFERASE [2]: 82.67 u/L | ALBUMIN [2]: 4.17 G/DL | ALKALINE PHOSPHATASE [2]: 321.83 u/L | ASPARTATE AMINOTRANSFERASE [2]: 99.5 u/L | BLOOD UREA NITROGEN [2]: 13.33 mg/dL | CARBON DIOXIDE [2]: 33.67 mmol/L | CHLORIDE [2]: 99.83 MEQ/L | CHOLESTEROL [2]: 64 mg/dL | CREATINE PHOSPHOKINASE [2]: 275.33 u/L | CREATININE [2]: 0.21 mg/dL | GLUCOSE [2]: 146.17 mg/dL | LACTATE DEHYDROGENASE [2]: 101 u/L | LIPASE [2]: 9.83 u/L | PHOSPHORUS [2]: 8.82 mg/dL | POTASSIUM [2]: 5.51 MEQ/L | SODIUM [2]: 143.2 MEQ/L | TOTAL BILIRUBIN [2]: 0.18 mg/dL | TOTAL PROTEIN [2]: 5.83 G/DL | URIC ACID [2]: 0.63 mg/dL | ABSOLUTE EOSINOPHIL [3]: 44 CELLS/uL | ABSOLUTE LYMPHOCYTE [3]: 11229.17 CELLS/uL | ABSOLUTE MONOCYTE [3]: 321.83 CELLS/uL | ABSOLUTE SEGMENTED NEUTROPHIL [3]: 3421.67 CELLS/uL | BASOPHIL [3]: 0% | EOSINOPHIL [3]: 0.33% | ERYTHROCYTE COUNT [3]: 6.19 x10E6/uL | HEMATOCRIT [3]: 40.97% | HEMOGLOBIN [3]: 15.07 G/DL | LEUKOCYTE COUNT [3]: 15.02 x10E3/uL | LYMPHOCYTE [3]: 73% | MEAN CORPUSCULAR HEMOGLOBIN [3]: 24.45 pg | MEAN CORPUSCULAR HEMOGLOBIN CONCENTRATION [3]: 36.95 G/DL | MEAN CORPUSCULAR VOLUME [3]: 66.17 fL | MONOCYTE [3]: 2.17% | NEUTROPHIL [3]: 24.5% | NUCLEATED RED BLOOD CELLS [3]: 0 /100WBC | PLATELET COUNT [3]: 1278.5 x10E3/uL | ALANINE AMINOTRANSFERASE [3]: 102.5 u/L | ALBUMIN [3]: 4.68 G/DL | ALKALINE PHOSPHATASE [3]: 305.83 u/L | ASPARTATE AMINOTRANSFERASE [3]: 279.83 u/L | BLOOD UREA NITROGEN [3]: 16.33 mg/dL | CARBON DIOXIDE [3]: 16.33 mmol/L | CHLORIDE [3]: 100.33 MEQ/L | CHOLESTEROL [3]: 70 mg/dL | CREATINE PHOSPHOKINASE [3]: 845.5 u/L | CREATININE [3]: 0.19 mg/dL | GLUCOSE [3]: 129.67 mg/dL | LACTATE DEHYDROGENASE [3]: 1003.17 u/L | LIPASE [3]: 9 u/L | PHOSPHORUS [3]: 15.78 mg/dL | POTASSIUM [3]: 7.57 MEQ/L | SODIUM [3]: 142.47 MEQ/L | TOTAL BILIRUBIN [3]: 0.3 mg/dL | TOTAL PROTEIN [3]: 6.17 G/DL | URIC ACID [3]: 3.2 mg/dL
